The subject of the assay is CEM cells HIV-1 protection, formazan growth assay. Nature of the assay: NCI AIDS Antiviral Assay. The conditions noted are these: for IC50: measured here: growth of uninfected CEM cells. In short, it runs like this: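 CEM (human) cells, HIV-1 infected vs uninfected, 5-point dosing, formazan growth read-out. Retest threshold 50% protection.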

Each structure is given as a SMILES string. Active and inactive are the calls of the source.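 How the source made its calls: active means compounds giving half or more protection of infected cells from virus-caused growth loss, again on retest; inactive means the rest.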 Where a SMILES comes first, the peptide text is derived from it. [ ]: non-standard residue; d: D form. Phe(4-NO2) = N[CH](Cc1ccc([N+](=O)[O-])cc1)C(=O)O

Regarding `CN1COc2c(nc(-c3ccccc3)[nH]c2=O)C1`, the EC50 – broadly, the midpoint of the concentration-response curve – is more than 1020 µM and the half-inhibitory concentration (IC50) (as a rule, the midpoint of a concentration-inhibition curve) came out at 61.7 µM. For `CC(C)C1CO[C@]2(C)CCC(=O)N12` (stereo partly drawn), the EC50 was more than 1350 µM and the IC50 is more than 1350 µM.

As to `COC(=O)C(c1[nH]nc2ccccc12)C(C(=O)OC)c1[nH]nc2ccccc12` (stereo not drawn), the result was inactive. For the compound `Cc1nc(N)nc(N)c1N1CCN(c2ccc(N)cc2)CC1`, the EC50 is more than 200 µM and the IC50 came out at 2.82 µM. For `ON=C1/C(=N\O)CCC/C1=N/O`, the EC50 was more than 1050 µM and the IC50 came out at 19.1 µM. For `NC(=O)NCNC(N)=O`, in that order: more than 676 µM and more than 676 µM.

In the case of `CC(C(=O)O)c1cnn(-c2ccccc2)c1-n1cccc1` (stereo not drawn), the outcome was inactive. Consider `O=C(OCc1ccccc1)N1C[C@@H](OCc2ccccc2)[C@@H](OCc2ccccc2)[C@H]1CO`, for which the EC50 was more than 200 µM and the IC50 amounted to 10.7 µM. On to `CCOC(=O)c1ccc(NC(=O)c2cccc3c(Nc4ccc(S(=O)(=O)Nc5cc(C)on5)cc4)c4ccccc4nc23)cc1`, for which the EC50 was more than 200 µM and the half-maximal inhibitory concentration (IC50) worked out at 4.57 µM.

Regarding `Cn1cnc([N+](=O)[O-])c1S`, the EC50 is more than 200 µM and the concentration for half-maximal inhibition (IC50) amounted to 67.6 µM. With `[Br][Sn]12[c]3ccccc3CN(Cc3cccc[c]31)Cc1cccc[c]12`, the EC50 is more than 200 µM and the concentration for half-maximal inhibition (IC50) was more than 200 µM. On to `CO[C@@H]1[C@H](O)c2coc3c2[C@@](C)(c2ccc4c(c2C3=O)CCC4=O)[C@@H]1O`, for which the EC50 is more than 200 µM and the IC50 came to 28.8 µM. With `COc1cc(/C=C/C(=O)C(C)(C)C)cc(OC)c1OC`, the EC50 was more than 178 µM and the IC50 was 11.5 µM.

Regarding `COC(=O)N/N=C(\C)CC(=O)Nc1ccc(Cl)cc1`, the EC50 is more than 91.2 µM and the IC50 is more than 91.2 µM.

For the compound `Cc1cn(C2CC(N=[N+]=[N-])C(COC(=O)CCCCCCCCCCCCl)O2)c(=O)[nH]c1=O` (stereo not drawn), the 50% effective concentration (EC50) was 0.288 µM and the IC50 was 20 µM. Turning to `CC(CS(C)(=O)=O)S(=O)(=O)O` (stereo not drawn), the EC50 is more than 200 µM and the IC50 was more than 200 µM. For the compound `COC1C(C)OC(OC2CC(C)(O)C(C(=O)O)c3cc4c(c(O)c32)C(=O)c2c(O)cc3c(c2C4=O)OC2OC3(C)C(O)C(N(C)C)C2O)C(OC)C1(C)OC` (stereo not drawn), the outcome was inactive.

Turning to `COc1ccc(/C=C2\NC(=S)N(CN3CCCCC3)C2=O)cc1`, the EC50 is more than 200 µM and the IC50 worked out at 30.9 µM. Turning to `CCOC(=O)/C=C(/OCC)[C@@H]1C(C(=O)c2ccc(Cl)cc2)[C@H]1/C(=C\C(=O)OCC)OCC` (stereo partly drawn), the EC50 is more than 200 µM and the IC50 was 17.4 µM. With `COc1ccc2ccnc(Cc3ccc(OCc4ccccc4)c(OC)c3)c2c1`, the outcome was inactive. For `COC(=O)/C(=C\C(=O)c1ccc(Br)cc1)NN=C(c1ccccc1)c1ccccc1`, the EC50 is more than 200 µM and the IC50 is more than 200 µM. Turning to `N#C/C=C\c1ccc(F)cc1`, the EC50 was more than 245 µM and the half-inhibitory concentration (IC50) was more than 245 µM. With `CCN(CCN(CC)C(=O)Nc1ccccc1)C(=O)Nc1ccccc1`, the EC50 is more than 200 µM and the IC50 is more than 200 µM. Regarding `CC(SCCCCCCSC(C)C(=O)O)C(=O)O` (stereo not drawn), the EC50 was more than 851 µM and the half-inhibitory concentration (IC50) is more than 851 µM. On to `CC(C)=CCC[C@@H](C)C1=C(O)C(Nc2ccccc2I)=C(C)C(=O)C1=O`, for which the EC50 was more than 200 µM and the IC50 came to 6.76 µM. On to `COc1cc(O)c2c(=O)c(OC)c(-c3ccc(OC)c(OC)c3)oc2c1`, for which the result was inactive. Take `COc1ccc2nc(-c3ccccc3)c(=O)[nH]c2c1`: the EC50 was more than 200 µM and the 50% inhibitory concentration (IC50) worked out at 45.7 µM. On to `N#CC(C(=O)CCCC(=O)Nc1ccc(Cl)cc1Cl)c1ccc(Cl)cc1` (stereo not drawn), for which the outcome was inactive. `Cc1[nH]c(=O)nc2[nH][nH]c(=O)c12`: the result was inactive. On to `COC1/C=C/OC2(C)Oc3c(C)c(O)c4c(O)c(cc(OCC(=O)N5CC(C)(C)C5)c4c3C2=O)NC(=O)/C(C)=C/C=CC(C)C(O)C(C)C(O)C(C)C(OC(C)=O)C1C` (stereo not drawn), for which the EC50 is more than 200 µM and the 50% inhibitory concentration (IC50) was 26.9 µM. For the compound `O=C(Nc1nc2ncn(CCNCc3ccccc3)c2c(=O)[nH]1)c1ccccc1`, the EC50 is more than 174 µM and the concentration for half-maximal inhibition (IC50) amounted to 105 µM.

As for `CC1=NNC(=O)C1C1C=C(c2c[nH]c3ccccc23)OC1=O` (stereo not drawn), the EC50 was more than 200 µM and the concentration for half-maximal inhibition (IC50) stood at 102 µM. Take `CN(C)C1=NC(=O)C(c2ccccc2)O1` (stereo not drawn): the EC50 was more than 200 µM and the IC50 is more than 200 µM. Turning to `C/C=C(\C)C(=O)c1c(O)cc(O)c2ccc(=O)oc12`, the EC50 was more than 200 µM and the IC50 worked out at 112 µM. On to `COc1ccc2c(c1)CCC1=C2CC(=O)N2CCCCN12`, for which the EC50 was more than 91.2 µM and the half-inhibitory concentration (IC50) is more than 91.2 µM.

For `O=C(O)c1nc2cc(C(F)(F)F)ccc2nc1Nc1ccc(F)cc1`, the EC50 is more than 200 µM and the half-maximal inhibitory concentration (IC50) was found to be 7.76 µM. Take `CC(=O)O[C@H]1CC[C@@]2(C)C(=CC[C@@H]3C2CC[C@@]2(C)C3CC[C@@H]2c2ncc(C)s2)C1` (stereo partly drawn): the EC50 is more than 60.3 µM and the half-maximal inhibitory concentration (IC50) was more than 60.3 µM. As for `C=C(CC(=O)Nc1ccc(C(=O)OC)o1)C(=O)OC`, the EC50 is more than 200 µM and the half-maximal inhibitory concentration (IC50) was determined as 3.89 µM. With `COc1ccc(C(C#N)NC23CC4CC(CC(C4)C2)C3)cc1` (stereo not drawn), the result was inactive. For the compound `O=C1C=C(Nc2cc(Cl)ccc2Cl)c2ccccc2C1=O`, the EC50 was more than 3.16 µM and the half-maximal inhibitory concentration (IC50) was more than 3.16 µM. Take `CC1(C)OCC=CCO1`: the EC50 was more than 200 µM and the concentration for half-maximal inhibition (IC50) is more than 200 µM. For the compound `Cc1nc2c(=O)n(C)ncc2[nH]1`, the EC50 was more than 200 µM and the IC50 was more than 200 µM.

With `O=C(c1ccccc1)N(CCCCNC(=O)C(F)(F)F)CCCNC(=O)C(F)(F)F`, the EC50 is more than 200 µM and the IC50 is more than 200 µM. `CNc1ncnc2nc(OC)[nH]c12`: the EC50 was more than 105 µM and the IC50 is more than 105 µM. In the case of `COC(=O)C1(O)C(c2ccccc2)NC2(C)CCCC21` (stereo not drawn), the EC50 was more than 200 µM and the IC50 was more than 200 µM. In the case of `COc1cc2c(cc1OC)[C@@H](C(O)c1ccccc1)NCC2` (stereo partly drawn), the outcome was inactive. As for `Cc1ccc(C)n1-c1ccccc1C1C=Cn2c(=O)nnc3c(OC(C)C)c(OC(C)C)c(O)c1c32` (stereo not drawn), the EC50 is more than 200 µM and the 50% inhibitory concentration (IC50) was determined as 25.7 µM. On to `O=S(=O)(O)SCCCNCCCCCCCCNCCCSS(=O)(=O)O`, for which the EC50 is more than 200 µM and the IC50 was 10 µM. The like results for `O=c1[nH]c2ccccc2c2oc(-c3ccccc3)nc12` were, in that order, more than 100 µM and more than 100 µM. Turning to `CCOC(=O)C(=CC[C@@H]1N[C@H](C(N)=O)Cc2c1[nH]c1ccccc21)C(=O)OCC`, the EC50 is more than 33.9 µM and the concentration for half-maximal inhibition (IC50) is more than 33.9 µM. In the case of `Cc1ccc(-c2c(C#N)c(-c3ccc([N+](=O)[O-])cc3)c(C#N)c(=O)n2NS(=O)(=O)c2ccc(C)cc2)cc1`, the EC50 is more than 200 µM and the concentration for half-maximal inhibition (IC50) came out at 12 µM. Consider `S=c1nc2sc3c(c2c(Nc2ccccc2)[nH]1)CCCC3`, for which the EC50 was more than 200 µM and the IC50 is more than 200 µM. As for `CC(NC(=O)CNC(=O)C(N)CO)C(=O)NC(CCC(N)=O)C(=O)NC(CCC(=O)O)C(=O)NC(C)C(=O)NC(CCC(=O)O)C(=O)NC(CCCCN)C(=O)NC(CCC(N)=O)C(=O)NC(CCCN=C(N)N)C(=O)NC(C(=O)NC(CC(N)=O)C(=O)NC(C)C(=O)NC(Cc1cnc[nH]1)C(=O)NC(CO)C(=O)O)C(C)O` (stereo not drawn) (H-SGAQEAEKQRTNAHS-OH; configuration not given here), the EC50 is more than 100 µM and the IC50 was more than 100 µM. Turning to `NCCCCC(=O)c1cccnc1`, the EC50 was more than 1000 µM and the IC50 turned out to be 501 µM. Take `COC(=O)CCC(NC(=O)C(CCC(=O)OC)NC(=O)C(CCC(=O)OC)NC(=O)C(CCC(=O)OC)NC(=O)C(CCC(=O)OC)NC(=O)C(Cc1ccc([N+](=O)[O-])cc1)NC(=O)C(CCC(=O)OC)NC(=O)C(CCC(=O)OC)NC(=O)C(CCC(=O)OC)NC(=O)C(CCC(=O)OC)NC(=O)C(CCC(=O)OC)NC(C)=O)C(N)=O` (stereo not drawn) (Ac-E(OMe)E(OMe)E(OMe)E(OMe)E(OMe)[Phe(4-NO2)]E(OMe)E(OMe)E(OMe)E(OMe)E(OMe)-NH2; configuration not given here): the EC50 was more than 100 µM and the IC50 is more than 100 µM. In the case of `C(/C=C\c1ccccc1)=NCCCCCCN=C/C=C/c1ccccc1`, the EC50 was more than 20 µM and the half-inhibitory concentration (IC50) worked out at 12.3 µM. The like results for `Cc1cc(=O)oc2cc3c(cc12)Oc1ccccc1O3` were, in that order, more than 25.7 µM and more than 25.7 µM. For `CC1=CSC2=NCCN12`, in that order: more than 200 µM and more than 200 µM. For `CC(C)(C)COC(=O)NC1CCC2CCCCC2C1` (stereo not drawn), in that order: more than 200 µM and more than 200 µM. Consider `O=C1CCCCCCCCCCC1CN1CCCCC1` (stereo not drawn), for which the result was inactive. For the compound `S=C(Nc1ccc(Br)cn1)Nc1ccccc1-c1ccccc1`, the EC50 is more than 2 µM and the half-inhibitory concentration (IC50) was determined as 0.389 µM. Take `Clc1cc(Cc2cc(Cl)c(Cl)c3c2OCOC3)c2c(c1Cl)COCO2`: the result was inactive. As for `CCc1cccc2c3c([nH]c12)C(CC)(CC(=O)O)OCC3` (stereo not drawn), the EC50 is more than 200 µM and the IC50 was more than 200 µM. On to `ClC1C(Cl)C2CC1C1CC3OC3C21` (stereo not drawn), for which the EC50 is more than 200 µM and the IC50 was more than 200 µM. Turning to `CC1(C)N=C(N)N=C(N)N1c1ccc(Cl)c(Cl)c1`, the EC50 is more than 0.01 µM and the IC50 stood at 0.00427 µM. With `O=C(O)C1C=CC(c2ccc(Cl)cc2)=N1` (stereo not drawn), the EC50 was more than 200 µM and the IC50 was more than 200 µM.

For the compound `CC(=O)Nc1cc2c(cc1[N+](=O)[O-])-c1ccccc1C2=O`, the EC50 was more than 200 µM and the concentration for half-maximal inhibition (IC50) was more than 200 µM. As to `COc1ccc(-c2onc(-c3ccc([N+](=O)[O-])cc3)c2C2=NCCN2)cc1`, the EC50 is more than 12.9 µM and the IC50 is more than 12.9 µM. Turning to `COc1ccc(N=C/C=C/C(=C/COC(C)=O)OC(C)=O)cc1`, the EC50 is more than 200 µM and the 50% inhibitory concentration (IC50) came to 11.5 µM. On to `CCCCCCCCCCCC(=O)N(C)CCS(=O)(=O)O`, for which the outcome was inactive.

For the origin of these results see PubChem BioAssay AID179 (DTP/NCI, 2004).
